From PMC8517087, “Analysis of M4 Transmembrane Segments in NMDA Receptor Function: A Negative Allosteric Modulatory Site at the GluN1 M4 is Determining the Efficiency of Neurosteroid Modulation” (Frontiers in Pharmacology, 2021)
Structures can show the parent of a compound that is named as a salt.

Experiments:
Experiment in all cases: two-electrode voltage clamp, Xenopus oocytes, -70 mV
Format in all cases: cell-based
GluN1/GluN2A^ΔM4+M4^N2A = target: T1, GluN1/GluN2A^ΔM4+M4^N2A (Rattus norvegicus; Mus musculus, UniProt P35436+P35439); conditions: saturating glutamate and glycine, PS pre-applied 45 s
T1 construct: gene Grin1; full-length GluN1 with M4-truncated GluN2A plus separately expressed GluN2A M4 fragment; Xenopus oocytes

GluN1/GluN2A = target: T2, GluN1/GluN2A (Rattus norvegicus; Mus musculus, UniProt P35436+P35439)
T2 construct: gene Grin1; full-length wild-type subunits in pNKS2, cRNA in Xenopus laevis oocytes; heterotetramer (rat GluN1 with mouse GluN2A)

GluN1^ΔM4+M4^N1/GluN2D = target: T3, GluN1^ΔM4+M4^N1/GluN2D (Rattus norvegicus; Mus musculus, UniProt P35439+Q03391); conditions: saturating glutamate and glycine, PS pre-applied 45 s
T3 construct: gene Grin1; M4-truncated GluN1 plus separately expressed M4 fragment carrying GluN1 signal peptide, with full-length GluN2D; Xenopus oocytes

GluN1^ΔM4+M4^N1/GluN2A = target: T4, GluN1^ΔM4+M4^N1/GluN2A (Rattus norvegicus; Mus musculus, UniProt P35436+P35439)
T4 construct: gene Grin1; M4-truncated GluN1 plus separately expressed M4 fragment carrying GluN1 signal peptide, with full-length GluN2A; Xenopus oocytes

T2 sequence (P35436 23-1464, other chains not shown): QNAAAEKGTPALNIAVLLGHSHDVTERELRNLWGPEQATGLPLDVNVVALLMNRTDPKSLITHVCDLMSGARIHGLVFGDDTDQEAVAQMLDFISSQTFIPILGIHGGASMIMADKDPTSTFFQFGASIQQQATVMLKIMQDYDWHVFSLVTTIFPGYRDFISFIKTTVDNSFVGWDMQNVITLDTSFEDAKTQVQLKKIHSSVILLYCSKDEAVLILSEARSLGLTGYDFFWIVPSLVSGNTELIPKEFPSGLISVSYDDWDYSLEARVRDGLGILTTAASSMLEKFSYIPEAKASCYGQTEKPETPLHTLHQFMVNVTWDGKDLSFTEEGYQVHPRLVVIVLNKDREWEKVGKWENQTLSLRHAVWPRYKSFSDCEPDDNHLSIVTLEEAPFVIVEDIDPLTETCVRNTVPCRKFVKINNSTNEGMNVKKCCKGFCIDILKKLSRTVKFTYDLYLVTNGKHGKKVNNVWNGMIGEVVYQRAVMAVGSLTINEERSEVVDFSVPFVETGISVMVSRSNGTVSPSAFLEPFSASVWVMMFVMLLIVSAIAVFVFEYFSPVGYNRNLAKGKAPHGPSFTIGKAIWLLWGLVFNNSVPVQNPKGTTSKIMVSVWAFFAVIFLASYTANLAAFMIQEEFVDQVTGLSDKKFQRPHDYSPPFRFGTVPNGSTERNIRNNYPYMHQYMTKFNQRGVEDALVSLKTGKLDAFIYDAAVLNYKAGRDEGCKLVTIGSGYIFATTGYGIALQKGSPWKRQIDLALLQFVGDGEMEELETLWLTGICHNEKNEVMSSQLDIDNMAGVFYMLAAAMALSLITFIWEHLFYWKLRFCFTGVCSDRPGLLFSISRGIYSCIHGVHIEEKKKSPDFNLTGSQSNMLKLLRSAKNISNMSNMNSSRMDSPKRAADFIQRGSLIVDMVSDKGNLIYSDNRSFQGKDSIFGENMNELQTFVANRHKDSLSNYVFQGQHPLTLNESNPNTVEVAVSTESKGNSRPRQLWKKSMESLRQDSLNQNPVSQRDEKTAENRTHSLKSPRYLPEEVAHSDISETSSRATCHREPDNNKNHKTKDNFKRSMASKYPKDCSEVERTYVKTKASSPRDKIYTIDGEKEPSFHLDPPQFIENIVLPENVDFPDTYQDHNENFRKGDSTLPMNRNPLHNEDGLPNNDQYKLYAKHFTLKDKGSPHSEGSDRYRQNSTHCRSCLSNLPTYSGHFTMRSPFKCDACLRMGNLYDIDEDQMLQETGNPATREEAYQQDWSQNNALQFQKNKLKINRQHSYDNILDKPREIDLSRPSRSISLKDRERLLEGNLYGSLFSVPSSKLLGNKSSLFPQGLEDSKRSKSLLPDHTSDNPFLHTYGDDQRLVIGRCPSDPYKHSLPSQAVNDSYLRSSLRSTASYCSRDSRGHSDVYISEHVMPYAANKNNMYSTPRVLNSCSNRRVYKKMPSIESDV
T1 sequence (P35436 23-803, stated change not applied, other chains not shown): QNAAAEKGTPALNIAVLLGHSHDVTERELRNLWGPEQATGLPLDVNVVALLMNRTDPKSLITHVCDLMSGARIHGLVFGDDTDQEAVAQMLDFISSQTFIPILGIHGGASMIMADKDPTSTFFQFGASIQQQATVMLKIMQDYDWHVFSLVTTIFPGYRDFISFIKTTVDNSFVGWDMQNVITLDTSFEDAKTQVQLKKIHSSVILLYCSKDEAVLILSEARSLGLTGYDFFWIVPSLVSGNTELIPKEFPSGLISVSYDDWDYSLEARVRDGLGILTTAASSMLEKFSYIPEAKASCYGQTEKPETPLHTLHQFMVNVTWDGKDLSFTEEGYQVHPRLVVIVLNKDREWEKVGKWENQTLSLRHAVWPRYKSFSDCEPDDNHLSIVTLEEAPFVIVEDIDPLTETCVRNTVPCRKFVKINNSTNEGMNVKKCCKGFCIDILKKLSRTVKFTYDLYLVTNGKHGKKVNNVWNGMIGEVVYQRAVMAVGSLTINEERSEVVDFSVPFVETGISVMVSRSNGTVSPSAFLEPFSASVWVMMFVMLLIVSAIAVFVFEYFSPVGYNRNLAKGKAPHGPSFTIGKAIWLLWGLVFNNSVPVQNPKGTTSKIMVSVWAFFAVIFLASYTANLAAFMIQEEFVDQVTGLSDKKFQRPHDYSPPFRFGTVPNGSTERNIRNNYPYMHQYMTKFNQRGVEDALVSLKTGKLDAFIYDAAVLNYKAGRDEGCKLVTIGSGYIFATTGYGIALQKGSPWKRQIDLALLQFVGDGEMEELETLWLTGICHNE
T1 sequence (P35436 804-1464, stated change not applied, other chains not shown): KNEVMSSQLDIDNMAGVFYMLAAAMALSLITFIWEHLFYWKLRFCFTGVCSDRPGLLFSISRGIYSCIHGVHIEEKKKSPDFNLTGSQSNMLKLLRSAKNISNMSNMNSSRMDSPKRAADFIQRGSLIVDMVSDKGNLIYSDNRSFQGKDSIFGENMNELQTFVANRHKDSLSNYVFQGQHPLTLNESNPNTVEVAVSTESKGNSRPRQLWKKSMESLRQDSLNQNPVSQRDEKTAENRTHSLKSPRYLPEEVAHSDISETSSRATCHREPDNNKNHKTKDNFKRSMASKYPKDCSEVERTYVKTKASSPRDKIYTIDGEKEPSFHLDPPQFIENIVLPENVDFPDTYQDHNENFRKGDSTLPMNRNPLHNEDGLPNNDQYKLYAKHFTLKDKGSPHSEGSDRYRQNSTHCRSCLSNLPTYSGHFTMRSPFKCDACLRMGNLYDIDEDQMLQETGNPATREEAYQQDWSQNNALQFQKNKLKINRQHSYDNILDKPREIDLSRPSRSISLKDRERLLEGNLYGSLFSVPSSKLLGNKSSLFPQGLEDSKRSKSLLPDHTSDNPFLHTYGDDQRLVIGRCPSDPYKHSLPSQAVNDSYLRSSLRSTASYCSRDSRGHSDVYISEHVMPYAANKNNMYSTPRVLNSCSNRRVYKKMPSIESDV

CC(=O)[C@H]1CC[C@H]2[C@@H]3CC=C4C[C@@H](OS(=O)(=O)O)CC[C@]4(C)[C@H]3CC[C@]12C [pregnenolone sulfate, 20-oxo-5-pregnen-3β-yl sulfate]
Imax potentiation at 100 μM (fold) (GluN1/GluN2A^ΔM4+M4^N2A): ~ 1.1 fold | EC50 (GluN1/GluN2A): 12.4 ± 1.3 µM | Imax potentiation (fold) (GluN1^ΔM4+M4^N1/GluN2D): 1.45 ± 0.19 fold | EC50 (GluN1^ΔM4+M4^N1/GluN2A): 15 ± 1.1 µM
